Results as given in patent publication US4397839A, “Surface active material and process for preparing same” (Tokyo Tanabe Company, Limited, priority 1981, dated 1983).
Where “and” joins values, the source holds several entries; their conditions need not be identical. Equal entries are not always repeated. Structures can show the parent of a compound that is named as a salt.

System: mature rabbits suffering from septicemia induced by Escherichia coli, complicated by RDS
Format: in vivo, rabbit
Experimental: Specifically, 32 rabbits in the abovedescribed morbid state were divided into 4 groups including one control (or no-treatment) group. […] Then, all groups were comparatively examined for the degree of improvement in respiratory function. The morbid rabbits were prepared and the degree of lung injury was evaluated according to the methods of Cuevas et al. (Archives of Surgery, 104, 319, 1972), and the circulating titer of endotoxin in blood was determined according to the method of Reinhold et al. (Proceedings of the Society for Experimental Biology and Medicine, 137, 334, 1971). The treatment with the material of the invention and/or kanamycin sulfate was carried out within 24 hours before and after the onset of RDS. The material of the invention was instilled 1-6 times into the airway in a dose of 50-100 mg/kg for each treatment, while 80-150 mg/kg of kanamycin sulfate was intramuscularly injected in 2-8 divided doses. Two days after treatment, the subjects were examined for survival and the degree of lung injury. […] The degree of lung injury becomes severer as the value increases.

NC[C@H]1O[C@H](O[C@H]2[C@H](O)[C@@H](O[C@H]3O[C@H](CO)[C@@H](O)[C@H](N)[C@H]3O)[C@H](N)C[C@@H]2N)[C@H](O)[C@@H](O)[C@@H]1O [kanamycin sulfate]
Circulating titer (endotoxin in blood) (individual animals (one line per subject)): 0.10 µg/mL and 0.01 µg/mL and 0.00 µg/mL and 0.40 µg/mL and 0.02 µg/mL | Survival (individual animals, two days after treatment): No and Yes | Degree of lung injury (individual animals, two days after treatment, severer as the value increases): 3 and 0 and 1 and 2
